From patent publication US20040034050A1, “Homo-camptothecin derivatives” (priority 2002, published 2004) come the findings set out here.

Structures are written as SMILES.

This assay deals with VM46 cells. Nature of the assay: Cell colony formation assay. Type of assay: cell-based. The settings on record: drug concentration producing 50% inhibition of colony formation, incubated with drugs for 72 hours at 37° C., colonies counted after 8 days. On the procedure: This example provides directions for growing cells and testing compounds of the invention for their effect on the growth of the cells. All cells are purchased from DCTDC Tumor Repository, NCI, NIH.
Cell Colony Formation Assay
Five hundred cells (VM46) were plated in 60 mm Petri dishes containing 2.7 ml of medium (modified McCoy's 5a medium containing 10% bovine calf serum and 100 units/ml penicillin and […] streptomycin). The cells were incubated in a CO2 incubator at 37° C. for 5 hours for attachment to the bottom of Petri dishes. Drugs were made fresh in medium at ten times the final concentration, and then 0.3 ml of this stock solution was added to the 2.7 ml of medium in the dish. The cells were then incubated with drugs for 72 hours at 37° C. At the end of the incubation the drug-containing media were decanted, the dishes were rinsed with 4 ml of Hank's Balance Salt Solution (HBSS), 5 ml of fresh medium is added, and the dishes are returned to the incubator for colony formation. The cell colonies were counted using colony counter after incubation for 8 days for VM46 cells.
Values of ID50 (the drug concentration producing 50% inhibition of colony formation) may be determined for each tested compound.
For `CC[C@@]1(O)CC(=O)OCc2c1cc1n(c2=O)Cc2cc3ccccc3nc2-1` (racemic) [homo-campothecin, homo-camptothecin], the “Values of ID 50” value was 4 nM. With `CCC1(OC(=O)COc2ccc(OC(F)(F)F)cc2)CC(=O)OCc2c1cc1n(c2=O)Cc2cc3ccccc3nc2-1` (centres unmarked) [Example 1164, Homo-camptothecin-20-O-ester of 4-Trifluoromethoxyphenoxyacetic Acid] the figure was 3.5 nM; with `CCC1(OC(=O)COc2cccc(Cl)c2Cl)CC(=O)OCc2c1cc1n(c2=O)Cc2cc3ccccc3nc2-1` (centres unmarked) [Example 1158, Homocamptothecin-20-O Ester of 2,3-Dichlorophenoxy Acetic Acid], 1.5 nM; with `CCC1(OC(=O)COc2ccc(F)cc2)CC(=O)OCc2c1cc1n(c2=O)Cc2cc3ccccc3nc2-1` (centres unmarked) [Example 1160, Homo-camptothecin-20-O-ester of 4-Fluorophenoxyacetic Acid], 1.5 nM.

For the compound `CCC1(OC(=O)COc2ccccc2Cl)CC(=O)OCc2c1cc1n(c2=O)Cc2cc3ccccc3nc2-1` (centres unmarked) [Example 021229, Homocamptothecin-20-O Ester of 2-Chlorophenoxy Acetic Acid], the “Values of ID 50” value is 2 nM.
